Biological target: T1, human mGluR5d (Homo sapiens, UniProt P41594)
T1 construct: expressed in transfected cells; host or cells: GHEK (Human Embryonic Kidney cells expressing glutamate transporter) for the IP3 assay
Assay: Functional assessment of mGluR5 antagonism in cell lines expressing mGluR5d (FLIPR calcium mobilization / IP3 turnover; which assay gave the values is not stated)
Format: cell-based
Conditions: cells expressing human mGluR5d; assay (FLIPR or IP3) not specified
Description: The pharmacological properties of the compounds of the invention can be analyzed using standard assays for functional activity. Examples of glutamate receptor assays are well known in the art as described in for example Aramori et al., Neuron 8:757 (1992), Tanabe et al., Neuron 8:169 (1992), Miller et al., J. Neuroscience 15: 6103 (1995), Balazs, et al., J. Neurochemistry 69:151 (1997). The methodology described in these publications is incorporated herein by reference. Conveniently, the compounds of the invention can be studied by means of an assay that measures the mobilization of intracellular calcium, [Ca^2+]i in cells expressing mGluR5.
Intracellular calcium mobilization was measured by detecting changes in fluorescence of cells loaded with the fluorescent indicator fluo-3. Fluorescent signals were measured using the FLIPR system (Molecular Devices). […]
FLIPR experiments were done using a laser setting of 0.800 W and a 0.4 second CCD camera shutter speed. […] After each addition of the compound, the fluorescence signal was sampled 50 times at 1 second intervals followed by 3 samples at 5 second intervals. Responses were measured as the peak height of the response within the sample period. […]
We have validated a secondary functional assay for mGluR5d based on Inositol Phosphate (IP3) turnover. IP3 accumulation is measured as an index of receptor mediated phospholipase C turnover. […]

T1 sequence (P41594 21-942 isoform P41594-3 limits assumed): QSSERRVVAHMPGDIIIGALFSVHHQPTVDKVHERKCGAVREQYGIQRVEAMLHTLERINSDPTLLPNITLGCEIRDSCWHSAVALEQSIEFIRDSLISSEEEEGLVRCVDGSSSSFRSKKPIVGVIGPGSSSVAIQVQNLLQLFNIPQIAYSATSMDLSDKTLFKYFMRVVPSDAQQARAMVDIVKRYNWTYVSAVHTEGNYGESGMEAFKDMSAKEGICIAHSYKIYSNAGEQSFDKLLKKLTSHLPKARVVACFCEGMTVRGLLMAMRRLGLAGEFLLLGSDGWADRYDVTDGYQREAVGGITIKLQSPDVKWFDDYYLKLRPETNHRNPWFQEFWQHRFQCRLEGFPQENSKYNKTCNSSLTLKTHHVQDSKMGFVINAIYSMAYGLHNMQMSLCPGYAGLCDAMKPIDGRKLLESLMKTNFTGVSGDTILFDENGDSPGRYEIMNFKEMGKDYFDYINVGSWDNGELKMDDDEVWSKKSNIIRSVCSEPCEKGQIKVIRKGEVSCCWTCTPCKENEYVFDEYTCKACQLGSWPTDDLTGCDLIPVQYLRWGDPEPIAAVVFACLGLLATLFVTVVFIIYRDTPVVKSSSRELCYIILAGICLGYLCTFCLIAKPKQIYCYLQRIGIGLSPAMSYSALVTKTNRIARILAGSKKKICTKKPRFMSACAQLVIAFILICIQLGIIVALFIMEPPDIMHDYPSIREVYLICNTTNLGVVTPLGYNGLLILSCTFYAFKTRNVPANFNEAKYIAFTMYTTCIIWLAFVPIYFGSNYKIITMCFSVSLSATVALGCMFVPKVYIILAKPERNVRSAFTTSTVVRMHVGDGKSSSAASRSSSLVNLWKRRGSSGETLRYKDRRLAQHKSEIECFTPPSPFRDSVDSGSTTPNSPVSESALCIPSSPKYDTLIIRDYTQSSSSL

IC50 | Structure (SMILES)
101 nM | CC(c1noc(-c2cccc(Cl)c2)n1)N1CCN(c2nccnc2C#N)CC1 (centres unmarked) [Example 15.11, 3-(4-{1-[5-(3-chlorophenyl)-1,2,4-oxadiazol-3-yl]ethyl}piperazin-1-yl) pyrazine-2-carbonitrile]
199 nM | N#Cc1ccc(N2CCN(Cc3cc(-c4cc(Cl)ccc4F)on3)CC2)nc1 [Example 16.1, 6-(4-{[5-(5-chloro-2-fluorophenyl)isoxazol-3-yl]methyl}piperazin-1-yl) nicotinonitrile]

Reference: patent US20070037820A1, “Substituted piperazines as metabotropic glutamate receptor antagonists” (AstraZeneca AB, priority 2005, published 2007)
